{"source": "paper PMC9227171", "about": "(Life, 2022)", "key": {"[1]": {"molecular_target": "protein synthesis in rabbit reticulocyte lysates", "assay": "Inhibition of protein synthesis in rabbit reticulocyte lysates (luciferase mRNA, luminescence)", "type": "biochemical", "conditions": "for EC50: luciferase mRNA, 30 °C, 90 min, read-out: EC50 (50% inhibitory concentration); for impact on protein synthesis: concentration range extending to 50 μM; for inhibition of translation: at 100 μM", "method": "The dose–response change in chemoluminescense monitored in the presence of various concentrations of investigational drugs following addition of luciferin allows comparison across compounds.\nAssay conditions were employed as recommended by the manufacturer. In summary, reactions (20 μL) contained 80% TNT Quick master mix, 20 µM methionine, and 40 ng/µL luciferase RNA (Promega; L4561) at the indicated concentration of test chemicals. Samples were incubated at 30 °C for 90 min and diluted ten-fold with PBS. An aliquot (2 μL) was mixed with 20 μL of luciferase assay reagent (Promega; E1500) and luminescence was measured with a Turner Designs Model TD-20/20 Luminometer. Depending on the compound evaluated, experiments were repeated two-four times with good agreement between the runs. […] The results are reported as average values including the mean and standard deviation wherever applicable."}, "[2]": {"tested_on": "protein synthesis in Vero E6 cells", "assay": "Protein synthesis in cultured cells: puromycin pulse labeling and immunoblotting", "type": "cell-based, African green monkey", "method": "Prior to the experiment, Vero E6 cells were seeded at 30,000 cells per cm^2 in 6-well plates in 5% FBS-EMEM. […] Control experiments were conducted in the absence and presence of cycloheximide (1–150 μM) or DMSO. Following incubation with puromycin for 10 min, the medium was quickly removed and cells washed with warm PBS and allowed to recover in drug-free 5% FBS-EMEM for 30 min. Cell pellets collected by trypsinization and centrifugation were stored at −80 °C while awaiting protein preparation and immunoblotting as described below.\nCell lysates were prepared in RIPA (radio-immunoprecipitation) buffer (Sigma; R0278) containing protease inhibitors (Sigma; P8340). Protein concentrations were determined via the Pierce^TM bicinconinic acid (BCA) assay (Thermo Fisher Scientific, Waltham, MA, USA) using bovine serum albumin as a standard. All procedures were performed in accordance with protocols recommended by the manufacturers. For immunoblotting, 8 μg of protein was combined with Laemmli buffer containing 10% β-mercaptoethanol, heated at 95 °C for 5 min and loaded on 8–16% Mini-PROTEAN® TGX™ precast protein gels. Samples were resolved via electrophoresis in Tris-Gly-SDS buffer and transferred to nitrocellulose membranes in Tris-Gly buffer containing 20% methanol at 4–6 V/cm^2 for one hour. Membranes were blocked in 10 mM sodium phosphate buffer containing 150 mM NaCl (pH 7.8), 5% milk and 0.1% TWEEN20 (PBST) at room temperature for at least one hour, then incubated overnight with primary anti-puromycin antibodies (TFS; MABE343 mouse monoclonal antibodies clone 12D10; 1:25,000) at 4 °C. […]\nFor β-actin staining, the same membranes used for puromycin immunostaining were washed four times for five min with 20 mM Tris-buffered saline containing 500 mM sodium chloride (pH 7.5) and 0.1% TWEEN20 (TBST) and stripped by two rounds of 20- and 10-min washes at 50 °C in glycine buffer (pH 2.2) containing 0.1% SDS (w/v) and 1% TWEEN20. […] The results were quantified with Image J 1.52a software using β-actin staining for each sample as an internal reference."}, "HIV-1": {"tested_on": "HIV-1", "conditions": "among low molecular weight ATA components ref 39, 43; cited from earlier work"}, "[3]": {"molecular_target": "SARS-CoV-2 RdRp (nsp12/7/8 complex) (Severe acute respiratory syndrome coronavirus 2, UniProt P0DTD1)", "assay": "Inhibition of SARS-CoV-2 RdRp active complex (RNA extension assay)", "type": "biochemical", "conditions": "RdRp-mediated RNA replication, 37 °C, 60 min, 1 μM RdRp complex"}, "[4]": {"molecular_target": "T1, human serum albumin (HSA) (Homo sapiens, UniProt P02768)", "T1 construct": "purchased Millipore Sigma A1887", "T1 sequence (P02768 25-609)": "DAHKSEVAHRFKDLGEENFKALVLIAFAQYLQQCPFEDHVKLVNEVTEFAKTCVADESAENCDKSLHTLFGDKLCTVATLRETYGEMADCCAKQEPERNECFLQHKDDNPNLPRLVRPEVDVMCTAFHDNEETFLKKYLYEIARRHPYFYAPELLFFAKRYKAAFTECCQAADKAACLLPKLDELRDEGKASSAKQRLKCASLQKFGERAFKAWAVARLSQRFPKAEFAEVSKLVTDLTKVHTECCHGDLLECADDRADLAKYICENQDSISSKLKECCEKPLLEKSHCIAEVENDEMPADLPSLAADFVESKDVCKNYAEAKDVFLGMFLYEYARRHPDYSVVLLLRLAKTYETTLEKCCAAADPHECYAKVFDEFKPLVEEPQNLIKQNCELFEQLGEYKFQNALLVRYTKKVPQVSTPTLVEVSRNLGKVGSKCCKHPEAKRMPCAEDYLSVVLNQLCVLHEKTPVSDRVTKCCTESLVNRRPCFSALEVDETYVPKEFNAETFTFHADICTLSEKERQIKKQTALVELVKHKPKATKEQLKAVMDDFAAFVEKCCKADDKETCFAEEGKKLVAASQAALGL", "assay": "HSA binding energetics via isothermal titration calorimetry (ITC)", "conditions": "for TΔS / ΔG / ΔH: pH 7.4", "method": "The resultant heats are integrated to yield a binding profile (bottom panel) that is fit via nonlinear least squares analysis to a single site model (red line).\nThe protein was prepared as described in Section 5.1 and dialyzed exhaustively against a buffer comprised of 10 mM sodium phosphate adjusted to pH 7.4. […] Each ITC experiment consisted of thirty consecutive 10.0 µL injections during which the reaction heat is monitored and integrated over a 5.0 min period under continuous stirring. The experimental protocol has been designed to ensure that there is a tenfold excess of ligand in the titration syringe relative to standard protein concentration in the sample cell. The resultant binding isotherms are generated by recording the integrated reaction heats normalized for ligand concentration versus the HSA:ligand ratio. A nonlinear least squares fit of the resultant profile to a single site binding model yields thermodynamic parameters for the HSA–ligand complex including the affinity (Ka), Gibbs free energy (ΔG), enthalpy (ΔH), and entropy (ΔS)."}, "hCoV-OC43": {"tested_on": "hCoV-OC43", "assay": "Antiviral properties in hCoV-OC43 and VERO E6 cells (data not shown)", "type": "cell-based", "conditions": "concentrations ≥200 μM"}, "yeast 80S ribosomes": {"molecular_target": "yeast 80S ribosomes", "assay": "Ligand–ribosome binding via fluorescence anisotropy"}, "[5]": {"conditions": "ITC, 25.0 °C, listed as Dichlorohexamer"}}, "note": "Values joined by “and” are separate entries in the source; they are usually repeats but may differ in a detail not shown here. Identical values can stand only once.", "data": [{"smiles": "C[C@@H]1C[C@@H]([C@H](O)CC2CC(=O)NC(=O)C2)C(=O)[C@@H](C)C1", "note": "[Cycloheximide]", "values": [{"measurement": "EC50", "setting": "[1]", "result": 0.106, "unit": "µM"}, {"measurement": "activity at 150 µM", "setting": "[2]; Chlorocebus sabaeus, Vero C1008, 150 uM, read-out: % activity (anti-puromycin/b-actin densitometry)", "result": -3.99, "unit": "%"}, {"measurement": "activity at 300 µM", "setting": "[2]; Chlorocebus sabaeus, Vero C1008, 300 uM, read-out: % activity (anti-puromycin/b-actin densitometry)", "result": -3.95, "unit": "%"}, {"measurement": "concentration that inhibits protein synthesis", "setting": "[2]; puromycin labeling", "result": 1, "unit": "µM"}]}, {"smiles": "O=C(O)c1cc(Cc2cc(C(c3ccc(O)c(C(=O)O)c3)c3ccc(O)c(C(=O)O)c3)cc(C(=O)O)c2O)ccc1O", "note": "[compound 2]", "values": [{"measurement": "activity against HIV-1", "setting": "HIV-1", "result": "most active"}]}, {"smiles": "O=C(O)c1cc(Cc2cc(Cc3ccc(O)c(C(=O)O)c3)c(O)c(C(=O)O)c2)ccc1O", "note": "[compound 3]", "values": [{"measurement": "activity against HIV-1", "setting": "HIV-1", "result": "most active"}]}, {"smiles": "O=C(O)c1cc(Cc2cc(Cc3cc(Cc4cc(Cl)c(O)c(C(=O)O)c4)c(O)c(C(=O)O)c3)cc(C(=O)O)c2O)cc(Cl)c1O", "note": "[compound 8]", "values": [{"measurement": "IC50", "setting": "[3]", "result": "163 µM and ~163 µM"}, {"measurement": "impact on protein synthesis", "setting": "[1]", "result": "did not impact protein synthesis"}]}, {"smiles": "O=C(O)c1cc(Cc2cc(Cc3cc(Cc4ccc(O)c(C(=O)O)c4)c(O)c(C(=O)O)c3)cc(C(=O)O)c2O)ccc1O", "note": "[compound 9]", "values": [{"measurement": "IC50", "setting": "[3]", "result": "514 µM and ~514 µM"}, {"measurement": "impact on protein synthesis", "setting": "[1]", "result": "did not impact protein synthesis"}]}, {"smiles": "O=C(O)c1cc(Cc2cc(Cc3cc(Cc4cc(Cc5cc(Cc6cc(Cl)c(O)c(C(=O)O)c6)c(O)c(C(=O)O)c5)c(O)c(C(=O)O)c4)cc(C(=O)O)c3O)cc(C(=O)O)c2O)cc(Cl)c1O", "note": "[compound 11]", "values": [{"measurement": "IC50", "setting": "[3]", "result": 0.108, "unit": "µM"}, {"measurement": "Kd", "setting": "[4]; ITC, 25.0 °C, 10 mM sodium phosphate pH 7.4", "result": "1 ± 0.1", "unit": "µM"}, {"measurement": "Ka × 10^5", "setting": "[4]; ITC, 25.0 °C, 10 mM sodium phosphate pH 7.4, single site model", "result": "9.9 ± 0.5 10^5 M^−1"}, {"measurement": "TΔS", "setting": "[4]; ITC, 25.0 °C", "result": -7.1, "unit": "kcal/mol"}, {"measurement": "ΔG", "setting": "[4]; ITC, 25.0 °C", "result": -8.0, "unit": "kcal/mol"}, {"measurement": "ΔH", "setting": "[4]; ITC, 25.0 °C", "result": -15.1, "unit": "kcal/mol"}, {"measurement": "TΔS", "setting": "[4]; [5]", "result": "-7.1 ± 0.2", "unit": "kcal/mol"}, {"measurement": "ΔG", "setting": "[4]; [5]", "result": "-8.0 ± 0.2", "unit": "kcal/mol"}, {"measurement": "ΔH", "setting": "[4]; [5]", "result": "-15.1 ± 0.2", "unit": "kcal/mol"}, {"measurement": "stoichiometry n", "setting": "[4]; ITC, per monomeric unit of ATA (Mw 422.34) or per dichlorohexamer (Mw 956)", "result": "1.0 ±0.0"}, {"measurement": "ΔΔG", "setting": "[4]; chlorinated hexamer versus heterogeneous polymeric ATA, HSA binding", "result": 0.4, "unit": "kcal/mol"}, {"measurement": "antiviral properties", "setting": "hCoV-OC43", "result": "modest activity"}, {"measurement": "inhibition of translation", "setting": "[1]", "result": "~100", "unit": "%"}, {"measurement": "inhibition of translation", "setting": "[1]; signal comparable to background", "result": "completely inhibited translation"}, {"measurement": "EC50", "setting": "[1]", "result": 28.1, "unit": "µM"}, {"measurement": "Kd", "setting": "yeast 80S ribosomes; 25 °C, fluorescence anisotropy", "result": "0.21 ± 0.02", "unit": "µM"}, {"measurement": "affinity (double reciprocal plot)", "setting": "yeast 80S ribosomes; 25 °C, ligand 1 μM, excitation/emission 305/420 nm", "result": "4.8 × 10 ^6 M^−1"}, {"measurement": "Kd", "setting": "yeast 80S ribosomes; purified yeast ribosomes, discussion value", "result": "~0.2", "unit": "µM"}]}]}
